These results are taken from PubChem BioAssay (NCI).

The structures appear in SMILES notation. “And” between values parts separate entries of the source, which are not always exact repeats. Equal values may be shown once.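 Interpolation was linear, between the two tested concentrations surrounding the appropriate level; five concentrations were tested over 48 hours in 96-well plates. Abbreviation: GI50, concentration required for 50% inhibition of growth. The concentration for full growth arrest is given as TGI.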

Holding throughout (assay): DTP human tumour cell line panel, 48 h
For assay [1], the system named is RXF 393 renal.
The test system of assay [2] is SK-MEL-5 melanoma.
Assay [3] concerns SNB-75 CNS.
Assay [4] concerns HCT-15 colon.
The test system of assay [5] is TK-10 renal.
In assay [6] the test system is RPMI-8226 leukemia.
The subject of assay [7] is MOLT-4 leukemia.
In assay [8] the test system is SF-268 CNS.
In assay [9] the test system is SNB-19 CNS.
In assay [10] the test system is NCI-H23 lung.

On to `Cc1cc(Nc2ccc(NC(=O)c3ccc(Nc4ccnc5ccccc45)cc3)cc2)nc(N)n1`, for which the GI50 (commonly the concentration at which growth is held to half of that of the control) in [1] is 2.76 µM; in assay [2], 5.23 µM; in [3] it was 12.2 µM; in assay [4], 6.16 µM; in assay [5], 19.8 µM; in [6] it was over 100 µM. Moreover, the TGI (commonly the concentration at which net growth stops) in assay [1] is 9.82 µM; in assay [2], 49.9 µM; in assay [3], 43 µM; in assay [4] it was over 100 µM; in [5], over 100 µM; in [6] it was over 100 µM.

With `CC1(C)CC(=O)C(C=NC(=S)c2ccccc2)=C(O)C1`, the TGI in assay [2], in assay [3], in [4], in [7], in [5] and in assay [8] was over 100 µM each time. Further, the TGI in assay [9] and in assay [10] was over 100 µM each time.

Take `CC(C)C1=CC23CCC4C(C)(C(=O)O)CCCC4(C)C2CC1C1C(=O)N(c2ccc(Cc4ccc(N5C(=O)C6C7CC8C9(C)CCCC(C)(C(=O)O)C9CCC8(C=C7C(C)C)C6C5=O)cc4)cc2)C(=O)C13` (stereo not given): the TGI in assay [1] came to 27.4 µM; in assay [2] it was 24.8 µM; in assay [4], 24.5 µM; in [7], 32.9 µM; in [5], 29.7 µM; in [8] it was 27.4 µM. For the same molecule, the results for the TGI in [9], in assay [10] and in assay [6] were 17.9 µM, 10.9 µM and over 100 µM, respectively.

In the case of `COc1cccc2c1C(=O)c1c(O)c3c(c(O)c1C2=O)C[C@@](O)(C(=O)CO)C[C@@H]3OC1CC(N)CC(C)O1` (stereo not given in full), the GI50 in assay [1] is 0.122 µM and 0.0806 µM; in assay [2], 0.00743 µM and 0.025 µM; in assay [3], 0.00885 µM and 0.047 µM; in assay [4] it was 0.183 µM and 0.125 µM; in assay [5], 0.396 µM and 0.148 µM; in [8] it was 0.0515 µM. Also, the GI50 in [9] was 0.0391 µM and 0.0413 µM; in assay [10], 0.0405 µM and 0.0387 µM; in assay [6], 0.0178 µM and 0.0704 µM. Also, the TGI in [1] was 0.298 µM and 0.369 µM; in [2], 0.145 µM and 0.203 µM; in assay [3], 0.195 µM and 0.161 µM; in [4] it was 3.57 µM and 2.53 µM; in assay [5], 1.55 µM and 3.45 µM; in assay [8], 0.461 µM and 0.937 µM. The TGI in assay [9] was 2.31 µM and 3.06 µM; in assay [10], 0.325 µM and 0.259 µM; in assay [6], 0.547 µM and 1.72 µM.

Take `CC(=O)OC1COC(Oc2c(C)c3c4c(c2O)[C@@H](C)CC[C@@H]4[C@@H](C)C[C@H]3C=C(C)C)C(O)C1OC(C)=O` (stereo not given in full): the GI50 is 11.4 µM in assay [1]; 24.7 µM in [2]; 5.76 µM in assay [4]; 6.64 µM in [7]; 24.1 µM in assay [5]; 27.6 µM in assay [8]. Further, the results for the GI50 in assay [9], in assay [10] and in assay [6] were 16 µM, 7.49 µM and 9.02 µM, respectively. Also, the TGI is 28.5 µM in assay [1]; 52.7 µM in assay [2]; 21.2 µM in assay [4]; 25.6 µM in assay [7]; 46.3 µM in [5]; over 100 µM in assay [8]. Further, the results for the TGI in assay [9], in assay [10] and in assay [6] were 40.1 µM, 18.6 µM and 69.8 µM, respectively.

Regarding `CC(=O)N=C1N(/C=C2\C(=O)Oc3ccccc3C2=O)C(=O)/C(=C/c2cccc(Cl)c2Cl)N1C`, the TGI was 84.6 µM in [1]; 32.2 µM in assay [2]; 57.8 µM in [3]; 32.5 µM in assay [4]; over 100 µM in assay [7]; over 100 µM in [8]. Further, the TGI in assay [10] was over 100 µM; in assay [6], 52.5 µM.

For `CC1(C)C(C#N)C1C1=C(N2CCOCC2)[C@]2(C)C(OC(=O)c3ccccc3)CC[C@@H]2C1` (stereo not given in full), the TGI in [1], in [2], in [3], in assay [4], in assay [7] and in assay [5] was over 100 µM in each case. Moreover, the TGI in assay [8], in assay [9] and in assay [10] was over 100 µM throughout.

Turning to `COc1ccc(Sc2[nH]c(C(C)=O)c3ccccc23)cc1`, the GI50 was 13.6 µM in assay [1]; 12.5 µM in [2]; 10.7 µM in assay [3]; 11.5 µM in assay [4]; 15 µM in assay [5]; 12.9 µM in [8]. Besides, the GI50 in assay [9] was 11.6 µM; in assay [10], 14.6 µM; in [6] it was 10.9 µM. The TGI stood at 39 µM in assay [1]; 24.9 µM in [2]; 51.3 µM in [3]; 31 µM in assay [4]; 37.5 µM in assay [5]; 27.1 µM in assay [8]. For the same molecule, the TGI came out at 31.2 µM in assay [9], 41.5 µM in assay [10] and 33.4 µM in [6].

With `Nc1nc(Cl)cc(NCCCCCCCCNc2cc(Cl)nc(N)n2)n1`, the TGI in [1] was 72 µM; in assay [2], 13 µM; in [3] it was 74.4 µM; in assay [4], over 100 µM; in [5], over 100 µM; in [8], over 100 µM. In addition, the TGI in assay [9], in assay [10] and in assay [6] was over 100 µM throughout.

Regarding `CO/N=C(/C)c1cccc(Nc2cc(-n3nnc4ccccc43)nc3ccccc23)c1`, the GI50 was 14.4 µM in assay [2]; over 100 µM in assay [3]; 31.8 µM in assay [4]; 7.18 µM in assay [7]; 26 µM in [5]; 30.5 µM in [8]. Moreover, the GI50 in assay [9] was 30.2 µM; in assay [10] it was 33.6 µM; in [6] it was 15.1 µM. Also, the TGI was 32.5 µM in assay [2]; over 100 µM in [3]; over 100 µM in assay [4]; over 100 µM in [7]; over 100 µM in assay [5]; over 100 µM in assay [8]. Besides, the TGI in assay [9], in [10] and in [6] was over 100 µM each time.

Regarding `CN1CC(=O)N2Cc3ccccc3-n3cccc3C2C1` (stereo not given), the TGI in assay [1], in assay [2], in [3], in [4], in assay [5] and in assay [8] was over 100 µM throughout. In addition, the TGI in [9] and in assay [10] was over 100 µM each time.
